Measurements taken from patent US20250205158A1, “BIODEGRADABLE LIPIDS AND FORMULATIONS FOR DELIVERY OF MRNA” (Massachusetts Institute of Technology, priority 2023, published 2025).
“Also recorded” adds a separate entry of the source. Read-outs that look alike come from different tables or passages of the source.

What was measured:
[1] = tested on: mice
Experimental: Evaluation of the LNPs via intramuscular injection. The in vivo potency of the ionizable lipids was screened through intramuscular injection of LNPs loaded with mRNA encoding firefly luciferase protein. These LNPs were formulated with a molar composition of (35:16:46.5:2.5) using one of the synthesized ionizable lipids, DOPE as a helper lipid, cholesterol, and DMPE-PEG respectively. mRNA-loaded LNPs were intramuscularly administered in mice at a dose of 1 μg, and expression of luciferase protein was monitored at 6 hours via IVIS bioluminescent imaging (FIG. 3). […] Without wishing to be bound by theory, increased levels of protein expression may enhance the response to vaccination.
In Vitro and In Vivo Screening of AMG Lipid Library. Following synthesis, the mRNA delivery efficacy of the AMG lipids was evaluated through both in vitro and in vivo screens. To screen the first generation of AMG lipids (FIGS. 11B and 11C), firefly luciferase (FLuc) mRNA was encapsulated into LNPs using a previously reported formulation containing ionizable lipid, 1,2-dioleoyl-sn-glycero-3-phosphoethanolamine (DOPE), cholesterol, and 1,2-dimyristoyl-rac-glycero-3-methoxypolyethylene glycol-2000 (DMG-PEG).^19 C2C12 myoblast cells were treated with these LNPs and FLuc expression was evaluated at 24 hrs. (FIG. 16). […] Each of these batches was then injected IM into the quadriceps of mice, and expression was characterized via IVIS imaging (Screen 1, FIG. 11E).
AMG lipids for enhanced mRNA delivery and improved tolerability. A rational design approach was used to further vary the ionizable lipid structure to enhance the mRNA delivery and immunogenicity. […] The lipid tail structure was varied to promote efficient LNP self-assembly while simultaneously promoting endosomal membrane disruption.^18 Monounsaturated (G41-G44) or fully saturated (GC12-GC18) lipid tails were developed. […] Without wishing to be bound by any particular theory, tail length may impact membrane fusion and endosomal escape.^10,11
Next, the headgroup was further modified to further improve delivery. Headgroups play a multifunctional role including enhancing LNP-mRNA interactions, promoting membrane-LNP fusion and endosomal escape which all contribute to mRNA delivery.^23 A series of similar aza-crown ethers were used to further investigate structure-activity relationship and enhance mRNA delivery. These headgroups featured between three and eight nitrogens linked by varying length of methylene chains. Each of these headgroups were reacted with tail G41 to synthesize a next generation of AMG lipids, which were then formulated with FLuc mRNA and evaluated for mRNA delivery following IM administration in mice (FIG. 12B).

[2] = tested on: influenza A/Tasmania/503/2020 virus; assay: Hemagglutination inhibition (HAI) assay, neutralizing antibody titers after HA mRNA vaccination; assay type: in vivo, BALB/cJ mice
Experimental: To test this, a dose-response vaccination experiment ranging from […] was performed in female BALB/cJ mice. Neutralizing antibody titers were evaluated using the hemagglutination inhibition (HAI) assay. HAI titers are strongly correlated with vaccine protection and the assay is an FDA approved method for testing influenza vaccine efficacy^38,39 In agreement with the binding antibody titers, higher neutralizing […] were measured across all three tested doses: SM-102 only gave detectable neutralizing immunity at a 1 μg dose, while AMG1541 gave neutralizing immunity with as little was 10 ng of mRNA (FIG. 13H). Not only was AMG1541 able to generate neutralizing immunity at a very low dose, the binding and neutralizing antibody titers were equivalent in mice vaccinated with AMG1541 at a […] as those with SM-102 at a […] (FIG. 13H).
HAI Assay. HAI assays were performed by IBT bioservices. Viral titers were standardized by defining one HA unit as the amount of inactivated influenza A/Tasmania/503/2020 virus required to completely hemagglutinate an equal volume of 1% turkey red blood cells (TRBCs) (Lampire). Serum was heat inactivated at 56° C. then receptor destroying enzyme (RDE) (DENKA) was added to the serum and incubated at 37° C. for 20 hrs. RDE was then deactivated at 56° C. for 60 mins. Serum samples were then serially diluted in DPBS and 25 μL of diluted serum was added to a 96-well V bottom plate. Subsequently, four HA units of inactivated virus in 25 μL of DPBS were added to the diluted serum and incubated for 30 mins. at RT. 50 μL of a 1% (4×10^7 cells/mL) solution of turkey red blood cells (Lampire) was then added to the serum and virus mixture.

[3] = tested on: BALB/c mice; details: spike mRNA LNPs on day 0 and day 21, serum day 35
Experimental: Briefly, 6-8 week old BALB/c mice were vaccinated with 1 g of mRNA LNPs on day 0 and on day 21, and serum was collected on day 35 to characterize the antibody response to vaccination.
Immunization studies. […] All LNPs were injected IM in the quadricep with an injection volume of 50 μL with the doses specified in the main text. All vaccination experiments followed a prime-boost dosing regimen with doses given on day 0 and day 21. On day 35, mice were sacrificed, and blood was collected via cardiac puncture and their spleens were collected for further characterization.
Binding antibody ELISAs. […] Plates were coated overnight at 4° C. by adding 100 μL of a 1 μg/mL antigen solution in 100 mM carbonate buffer, pH 9.6 to each well. The coated plates were then washed with ELISA wash buffer (Biolegend) and blocked for 1 hr. at room temperature (RT) with 150 μL of 1% BSA in PBS. The plate was then washed again, and 100 μL of serially diluted serum samples were then added to the plate and incubated at RT for 1 hr. Next, the plate was washed and the secondary goat anti-mouse IgG, HRP antibody (ThermoFisher) was diluted 1:3,000. 100 μL of this solution added to each well an incubated at RT for 1 hr. After incubation, the plate was washed and 100 μL of TMB chromogen solution (ThermoFisher) was added to each well and incubated for 30 mins. Finally, the HRP reaction was stopped by the addition of 100 μL of 0.5 M H2SO4. The absorbance of each well was immediately read at 450 nm with 600 nm as a reference using an Infinite M200 Pro (Tecan) plate reader. The resultant data were then fit with a 4-PL sigmodal curve and the endpoint titers were taken as the point at which this curve crossed four times the absorbance of the blank wells.

[4] = tested on: mice; assay type: in vivo, BALB/cJ and C57B1/6J mice; details: HA mRNA, dose=1 μg, day 35
[5] = tested on: mice; details: female BALB/cJ mice, 6 hours after the boost dose
[6] = tested on: mice; assay: Germinal center response after HA mRNA LNP prime dose; assay type: in vivo, BALB/cJ mice; details: LDLN 8 days following a prime dose
[7] = tested on: liver; assay: fLuc mRNA LNP protein expression after intravenous injection; assay type: in vivo; details: 0.25 mg/kg dose, 6 hrs.
Experimental: Evaluation of the LNPs via intravenous injection. The lipids were initially evaluated for intravenous protein expression by administration of a 0.25 mg/kg dose […] of fLuc mRNA LNPs.

[8] = TNS assay of LNP pKa; assay type: physicochemical
Experimental: Structural features of AMG lipids that facilitate mRNA delivery. The factors contributing to lipid potency were evaluated. The ionization properties of AMG1541 LNPs were investigated using a previously established 6-(p-toluidino)-2-napthalenesulfonic acid (TNS) assay.^22 The pKa of AMG LNPs showing higher in vivo mRNA transfection than SM-102 ranged between pH 6.4-6.7. […] In addition to endosomal buffering, it is hypothesized that the protonated ionizable lipids within the acidic endosome bind with anionic phospholipids within the endosomal membrane, destabilizing the membrane's bilayer and promoting endosomal pore formation.^17,52 The membrane fusion properties of the ionizable lipids was evaluated via ^31P NMR. When bilayer forming DPPS vesicles were mixed with equimolar AMG lipid under acidic conditions, a bilayer to hexagonal phase transition was observed, indicating their membrane-destabilizing nature (FIG. 15D).

In the case of CCCCCC/C=C\CCCC(=O)OCC(O)CN1CCN(CC(O)COC(=O)CCC/C=C\CCCCCC)CCN(CC(O)COC(=O)CCC/C=C\CCCCCC)CCN(CC(O)COC(=O)CCC/C=C\CCCCCC)CCN(CC(O)COC(=O)CCC/C=C\CCCCCC)CCN(CC(O)COC(=O)CCC/C=C\CCCCCC)CC1 (stereo not drawn) [AMG1541], the “fold higher expression compared to AMG104” value ([1]; IM, 1 μg, 6 hours) is reported as 4.5 fold, the “fold higher in vivo mRNA transfection compared to SM-102” value ([1]; IM, 1 μg, 6 hours) is reported as 3.5 fold and the “fold improvement in expression over cKK-E12” value ([1]; IM, 1 μg, 6 hours) is reported as 1.7 fold. The “potency in intramuscular administration of mRNA compared to SM-102 and ALC-0315” value ([1]; mouse, in vivo) was “equal or higher potency”, the “times higher in vivo mRNA delivery compared to FDA-approved counterparts” value ([1]; mouse, in vivo) was “approximately three” and the “fold higher neutralizing titers than SM-102” value ([2]; equivalent vaccine dose) was 13 fold. The “lowest mRNA dose giving neutralizing immunity” value ([2]; female BALB/cJ mice, dose-response vaccination) was 10 ng, the “fold lower dose giving similar protective immunity to SM-102” value ([2]; mouse, in vivo) was 100 fold and the “antibody titers after vaccination” value [3] was “high antibody titers; also recorded: highest antibody titers”. For the same molecule, the “fold higher binding antibody endpoint titers than SM-102” value ([4]; female BALB/cJ mice) was 6.8 fold, the “fold higher binding antibody titers than SM-102” value ([4]; female C57B1/6J mice) was 5.8 fold and the “fold higher binding antibody endpoint titers than SM-102” value ([4]; male BALB/cJ mice) was 15.8 fold. The “fold higher serum IL-2 than in SM-102 vaccinated mice” value [5] was 5 fold, the “serum cytokine levels compared with SM-102” value ([5]; except IL-2) was “comparable cytokine levels” and the “fold higher Ag+ GC B cells than SM-102 treated mice” value [6] was 6.0 fold. For the same molecule, the “fold more Fas+GL7+ GC B cells than SM-102 treated mice” value [6] was 4.8 fold, the “protein expression after intravenous fLuc mRNA LNPs” value [7] was “comparable levels of protein expression to lipid MD-1” and the “LNP pKa” value [8] was roughly 6.5.
